Laboratory results: patent US20220073554A1, “LINCOSAMIDE ANTIBIOTICS AND USES THEREOF” (President and Fellows of Harvard College, priority 2017, published 2022)
Converted amounts (≈) assume the structure as drawn. Like-named read-outs stand apart in the source and are kept apart here.

How the values were obtained:
Type in all cases: cell-based
[1] = test system: P. aeruginosa MMX 3476 Δmex; assay: MIC against P. aeruginosa MMX 3476 Δmex; conditions: Pseudomonas aeruginosa
[2] = test system: S. pneumoniae MMX 3028 cErmB; assay: MIC against S. pneumoniae MMX 3028 cErmB; conditions: Streptococcus pneumoniae, MMX3028CERMB
[3] = test system: S. pneumoniae MMX 3031 cMefA; assay: MIC against S. pneumoniae MMX 3031 cMefA; conditions: Streptococcus pneumoniae, MMX3031CMEFA
[4] = test system: S. aureus MMX 3035 cErmA; assay: MIC against S. aureus MMX 3035 cErmA; conditions: Staphylococcus aureus, MMX3035CERMA
[5] = test system: E. faecalis MMX 847 Macrolide-Resistant; assay: MIC against E. faecalis MMX 847 Macrolide-Resistant; conditions: Enterococcus faecalis
[6] = test system: P. aeruginosa MMX Mex parent strain; assay: MIC against P. aeruginosa MMX Mex parent strain; conditions: Pseudomonas aeruginosa
[7] = test system: S. aureus ATCC 29213; assay: MIC against S. aureus ATCC 29213; conditions: Staphylococcus aureus
[8] = test system: E. coli MMX TolC parent strain; assay: MIC against E. coli MMX TolC parent strain; conditions: Escherichia coli
[9] = test system: S. pyogenes MMX 946 Macrolide-Resistant; assay: MIC against S. pyogenes MMX 946 Macrolide-Resistant; conditions: Streptococcus pyogenes
[10] = test system: E. coli ATCC 15922; assay: MIC against E. coli ATCC 15922; conditions: Escherichia coli, ATCC15922
[11] = test system: S. aureus BAA 977 iErmA; assay: MIC against S. aureus BAA 977 iErmA; conditions: Staphylococcus aureus, BAA977
[12] = test system: S. aureus Micromyx USA 300; assay: MIC against S. aureus Micromyx USA 300; conditions: Staphylococcus aureus, USA300
[13] = test system: C. difficile BAA 1805; assay: MIC against C. difficile BAA 1805; conditions: Clostridioides difficile, BAA1805
[14] = test system: S. aureus MP-513 clinical cErm; assay: MIC against S. aureus MP-513 clinical cErm; conditions: Staphylococcus aureus
[15] = test system: S. pyogenes ATCC 19615; assay: MIC against S. pyogenes ATCC 19615; conditions: Streptococcus pyogenes, ATCC19615
[16] = test system: B. fragilis ATCC 25285; assay: MIC against B. fragilis ATCC 25285; conditions: Bacteroides fragilis, ATCC25285
[17] = test system: P. aeruginosa ATCC 27853; assay: MIC against P. aeruginosa ATCC 27853; conditions: Pseudomonas aeruginosa, ATCC27853
[18] = test system: S. pneumoniae ATCC 49619; assay: MIC against S. pneumoniae ATCC 49619; conditions: Streptococcus pneumoniae, ATCC49619; S. pneumoniae ATCC 49619; read-out: MIC
[19] = test system: E. coli MMX 0121 ΔTolC; assay: MIC against E. coli MMX 0121 ΔTolC; conditions: Escherichia coli
[20] = test system: E. faecalis ATCC 29212; assay: MIC against E. faecalis ATCC 29212; conditions: Enterococcus faecalis, ATCC29212
[21] = test system: E. coli ATCC 25922; assay: MIC against E. coli ATCC 25922; conditions: Escherichia coli, ATCC25922
[22] = test system: H. influenzae ATCC 49247; assay: MIC against H. influenzae ATCC 49247; conditions: Haemophilus influenzae, ATCC49247
[23] = test system: S. aureus MP-549 msr(a) USA 300; assay: MIC against S. aureus MP-549 msr(a) USA 300; conditions: Staphylococcus aureus, USA300, S. aureus MP-549 msr(a) USA 300
[24] = test system: E. faecalis UNT-047 VRE; assay: microbe, parasite or virus in culture; conditions: Enterococcus faecalis
[25] = test system: S. aureus UNT-146, MP-620, TP 506 (ermA); assay: microbe, parasite or virus in culture; conditions: Staphylococcus aureus
[26] = test system: E. coli MP-9 ΔTolC; assay: MIC against E. coli MP-9 ΔTolC; conditions: Escherichia coli
[27] = test system: S. aureus UNT96, NRS710, MP-618 (USA100, Erythro > 8); assay: microbe, parasite or virus in culture; conditions: Staphylococcus aureus
[28] = test system: K. pneumoniae ATCC 10031; assay: MIC against K. pneumoniae ATCC 10031; conditions: Klebsiella pneumoniae, ATCC10031
[29] = test system: S. aureus UNT-120, MP-619, NR522 (USA 600, GISA); assay: microbe, parasite or virus in culture; conditions: Staphylococcus aureus, USA600
[30] = test system: S. pneumoniae UNT-039, MP-627, TP1517 (mefA); assay: MIC against S. pneumoniae UNT-039, MP-627, TP1517 (mefA); conditions: Streptococcus pneumoniae
[31] = test system: S. pyogenes UNT-014, MP-625 MacRes; assay: MIC against S. pyogenes UNT-014, MP-625 MacRes; conditions: Streptococcus pyogenes
[32] = S. pyogenes ATCC 19615, read-out: MIC

SMILES	MIC [1] [µg/mL]	MIC [4] [µg/mL]	MIC [5] [µg/mL]	MIC [6] [µg/mL]	MIC [8] [µg/mL]	MIC [11] [µg/mL]	MIC [14] [µg/mL]	MIC [15, 32] [µg/mL]	MIC [16] [µg/mL]	MIC [17] [µg/mL]	MIC [18] [µg/mL]	MIC [19] [µg/mL]	MIC [2] [µg/mL]	MIC [20] [µg/mL]	MIC ([7]; ATCC29213) [µg/mL]	MIC [21] [µg/mL]	MIC [9] [µg/mL]	MIC [12] [µg/mL]	MIC [22] [µg/mL]	MIC [23] [µg/mL]	other results
CSC1O[C@H]([C@H](NC(=O)[C@H]2NC[C@@H]3CC=CCO[C@H]32)[C@H](C)Sc2ccc(-c3cncnc3)cc2)C(O)[C@@H](O)[C@H]1O (stereo partly drawn) [FSA-27049]	> 64	> 64	> 64	> 64	> 64	2 (≈ 3.4 µM)	> 64	≤ 0.06	> 64	> 64	≤ 0.06	8 (≈ 13.6 µM)	–	–	–	–	–	–	–	–	MIC ([2]; S. pneumoniae MMX 3028 cErmB, read-out: MIC): 39 µg/mL (≈ 66.2 µM); MIC [3]: ≤ 0.06 µg/mL; MIC ([7]; ATCC29213, S. aureus ATCC 29213, read-out: MIC): 1 µg/mL (≈ 1.7 µM); MIC ([9]; S. pyogenes MMX 946 Macrolide-Resistant (MacRes), read-out: MIC): 2 µg/mL (≈ 3.4 µM); MIC [10]: > 64 µg/mL; MIC ([12]; S. aureus Micromyx USA 300, read-out: MIC): 1 µg/mL (≈ 1.7 µM); MIC ([13]; C. difficile BAA 1805, read-out: MIC): 1 µg/mL (≈ 1.7 µM)
Cc1ccc(S(=O)(=O)OCC2O[C@H]([C@H](NC(=O)[C@H]3NC[C@@H]4CC=CCO[C@H]43)[C@@H](C)O)C(O)[C@@H](O)[C@H]2O)cc1 (stereo partly drawn) [FSA-211030]	> 64	> 64	> 64	> 64	> 64	> 64	–	1 (≈ 1.8 µM)	> 64	> 64	–	> 64	> 64	> 64	> 64	> 64	> 64	> 64	> 64	–	MIC [13]: > 64 µg/mL
C[C@@H](O)[C@@H](NC(=O)[C@H]1NC[C@@H]2CC=CCO[C@H]21)[C@H]1OC(CN=[N+]=[N-])[C@H](O)[C@H](O)C1O (stereo partly drawn) [FSA-211064]	> 64	> 64	> 64	> 64	> 64	> 64	–	4 (≈ 9.36 µM)	> 64	> 64	–	> 64	> 64	> 64	> 64	> 64	> 64	> 64	> 64	–	–
CSC1O[C@H]([C@H](NC(=O)[C@H]2NC[C@@H]3C[C@@H](O)[C@@H](O)CO[C@H]32)[C@H](C)Cl)C(O)[C@@H](O)[C@H]1O (stereo partly drawn) [FSA-501076]	–	–	–	–	–	> 64	> 64	–	–	> 64	–	–	–	> 64	> 64	> 64	–	–	–	> 64	MIC [24]: > 64 µg/mL; MIC [25]: > 64 µg/mL; MIC [26]: > 64 µg/mL; MIC [15]: > 64 µg/mL; MIC [27]: > 64 µg/mL; MIC [28]: > 64 µg/mL; MIC [29]: > 64 µg/mL
CSC1O[C@H]([C@H](NC(=O)[C@H]2NC[C@@H]3C[C@H]4OC(C)(C)O[C@H]4CO[C@H]32)[C@H](C)Cl)C(O)[C@@H](O)[C@H]1O (stereo partly drawn) [FSA-501099]	–	–	–	–	–	> 64	> 64	–	–	> 64	8 (≈ 15.7 µM)	–	–	> 64	> 64	> 64	–	–	–	> 64	MIC [24]: > 64 µg/mL; MIC [25]: > 64 µg/mL; MIC [30]: 2 µg/mL (≈ 3.91 µM); MIC [26]: > 64 µg/mL; MIC [31]: 32 µg/mL (≈ 62.6 µM); MIC [27]: > 64 µg/mL; MIC [28]: > 64 µg/mL; MIC [29]: > 64 µg/mL
